Two compounds from a compilation of properties of binary mixtures (doi:10.1016/j.molliq.2017.06.010) can be followed below.

The structures appear in SMILES notation.

This data set in a line: xn = mol fraction of the nth substance listed. The conditions noted are these: 303.15 K, 100 kPa.

Consider `CCC(=O)[O-].OCC[NH2+]c1ccccc1` + O, for which the electrical conductivity is, setting by setting: (x2 = 0.015) 0.0004 S/m; (x2 = 0.0341) 0.0004 S/m; (x2 = 0.0417) 0.0004 S/m; (x2 = 0.0546) 0.0004 S/m. Further, the speed of sound amounted to 1522.1 m/s (x2 = 0.015), 1524.3 m/s (x2 = 0.0341), 1525.3 m/s (x2 = 0.0417) and 1526.8 m/s (x2 = 0.0546). Further, the viscosity stood at 16.6 mPa·s (x2 = 0.015), 15.2 mPa·s (x2 = 0.0341), 14.7 mPa·s (x2 = 0.0417) and 13.8 mPa·s (x2 = 0.0546).

As to `CCCC(=O)[O-].OCC[NH2+]c1ccccc1` + O, the electrical conductivity turned out to be 0.0005 S/m (x2 = 0.016), 0.0005 S/m (x2 = 0.0386), 0.0005 S/m (x2 = 0.0546) and 0.0005 S/m (x2 = 0.0724). This compound also gave a speed of sound (x2 = 0.016) of 1508.9 m/s, a speed of sound (x2 = 0.0386) of 1509.4 m/s, a speed of sound (x2 = 0.0546) of 1509.8 m/s and a speed of sound (x2 = 0.0724) of 1510.4 m/s. Besides, the viscosity (x2 = 0.016) came to 18.1 mPa·s, the viscosity (x2 = 0.0386) is 16.9 mPa·s, the viscosity (x2 = 0.0546) stood at 16.3 mPa·s and the viscosity (x2 = 0.0724) is on record as 15.4 mPa·s.
